The target in data set [1] is T1, SALDAP (Alpine soil metagenome-derived salicylaldehyde dehydrogenase) (soil metagenome, UniProt Z9QUQ6R3A5).
T1 construct: pLATE51, N-terminal 6xHis tag (no cleavage told), E. coli BL21 (DE3), purified; homodimer about 115 kDa; EC 1.2.1.65
In words: X-ray crystal structure, […] Å. Conditions: active site, one ligand per monomer; ligand identity chosen by best fit to electron density (putative), no ligand added to the drop is told; pH 4.6. The data set is classed as binding.

Data set [2] deals with T1, SALDAP (Alpine soil metagenome-derived salicylaldehyde dehydrogenase). In words: differential scanning fluorimetry (SYPRO Orange). It counts as binding. The conditions noted are these: 2 mM ligand, 6 µM enzyme, 50 mM HEPES pH 7.4; no NAD+; untreated enzyme Tm 67.9 ± 0.17 °C. From the text: differential scanning fluorimetry (SYPRO Orange) on SALDAP (Alpine soil metagenome-derived salicylaldehyde dehydrogenase)
(In general: DSF heats the sample and reads unfolding from a dye or from intrinsic fluorescence.)

Data set [3] deals with the molecule itself. In words: SEC; analytical gel filtration on Sephacryl S-300 (K 9/30 column), 50 mM Tris-HCl, 17 mM Tris base, 150 mM NaCl pH 7.4, calibrated with standard proteins; mass estimated from the elution volume.

For the molecule `O=C(O)c1ccc(O)c(O)c1` [protocatechuic acid], the “X-ray crystal structure, 1.9 Å” value in data set [1] is “protocatechuic acid (PCA) was chosen as the ligand bound to the active site”. The “Melting temperature (T m) (°C)” value in data set [2] was 69.2 ± 0.25 °C.

B1: Alpine soil metagenome-derived salicylaldehyde dehydrogenase (SALDAP) (enzyme)
chain: MRGLTVNFERINPMTNQTASTAKAMTAAEARAVADRAAAGFAGWSVLGPNARRAVLMKAAAALEARKDDFVQAMMAEIGATAGWAMFNLMLAASMIREAAALTTQIGGEVIPSDKPGCLALALREPVGVVLGIAPWNAPIILGVRAIAVPLACGNAVILKASEICPRTHGLIIESFAEAGFPEGVVNVVTNAPQDAGEVVGALIDHPAVKRINFTGSTGVGRIIAKRAAEHLKPCLLELGGKAPLVVLDDADLDEAAKAAAFGAFMNQGQICMSTERIIVVEAIAAEFTRRFAAKAQSMATGDPREGKTPLGAVVDRKTVDHVNTLIDDATAKGARIIAGGKGDSVLMSATVVDGVTAAMKLYRDESFGPIVGIIRAKDEADAVRLANDSEYGLAAAVFTRDTARGLRVARQIRSGICHINGPTVHDEAQMPFGGVGASGYGRFGGKAGIDQFTELRWITMETQPGHFPI
notes: salicylaldehyde dehydrogenase SALDAP (EC 1.2.1.65) from an alphaproteobacterium, gene found by gene-targeted assembly in an Alpine soil metagenome; The pLATE51 vector adds the N-terminal 6×His tag; also called 6×His-SALDAP; 6×His SALDAP; not shown: 6×His, N-terminal, kept
Consider B1, for which the “stoichiometry N” value in data set [3] was 2.

What is called stoichiometry N is the number of molecules, sites or subunits per partner or assembly.

The values above are taken from paper PMC8996149 (Acta Crystallographica. Section F, Structural Biology …, 2022).
